As usually defined, the Ki is the dissociation constant of the complex between target and ligand, obtained from inhibition or displacement.

*1 amine or outer side, *2 acyl side, *3 side chain or, on linkers, in order; H or OH if unused. Where a SMILES comes first, the peptide text is derived from it. Side-chain parts run from the residue outwards. The star is where a group is joined. C18 diacid = O=C(O)CCCCCCCCCCCCCCCCC(=O)*; γGlu = O=C(O)[C@H](CCC(=O)[*:2])N[*:1]; Isovaleryl = CC(C)CC(=O)*; AEEA = NCCOCCOCC(=O)O

The assay deals with T1, Human Neuropeptide Y2 Receptor (Homo sapiens, UniProt P49146).
T1 construct: purchased CHEMICON HTS066M
T1 sequence (P49146 1-381): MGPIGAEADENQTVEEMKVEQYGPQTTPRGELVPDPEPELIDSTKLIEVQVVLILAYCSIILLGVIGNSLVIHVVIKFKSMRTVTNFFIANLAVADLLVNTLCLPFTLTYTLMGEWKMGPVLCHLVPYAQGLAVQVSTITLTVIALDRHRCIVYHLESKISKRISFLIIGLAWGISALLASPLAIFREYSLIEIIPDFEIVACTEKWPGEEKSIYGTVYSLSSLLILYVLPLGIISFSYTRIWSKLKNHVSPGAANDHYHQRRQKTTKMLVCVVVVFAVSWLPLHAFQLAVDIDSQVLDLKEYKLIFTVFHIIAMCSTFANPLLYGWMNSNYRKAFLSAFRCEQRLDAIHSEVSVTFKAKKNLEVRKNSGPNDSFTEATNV
Kind of assay: Radioligand binding competition assay (RLB). The conditions noted are these: Table 3; human 125I-PYY (1-36) 0.02 nM, Y2 receptor membranes; read-out: Ki. A digest of the protocol: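 Competition binding on human Y2 receptor membranes, 0.5 μg protein/well, in 50 mM HEPES, 5 mM MgCl2, 1 mM CaCl2, pH 7.4, 0.2% ovalbumin; peptides diluted from 1 mM DMSO stocks.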
On to `CC(C)CC(=O)N[C@@H](C)C(=O)N1CCC[C@H]1C(=O)N[C@@H](CCC(=O)O)C(=O)N[C@@H](CCCCNC(=O)COCCOCCNC(=O)COCCOCCNC(=O)CC[C@H](NC(=O)CCCCCCCCCCCCCCCCC(=O)O)C(=O)O)C(=O)N1CCC[C@H]1C(=O)N[C@@H](CCC(=O)O)C(=O)N[C@@H](CCC(=O)O)C(=O)N[C@@H](CCC(=O)O)C(=O)N[C@@H](C)C(=O)N[C@@H](CO)C(=O)N1CCC[C@H]1C(=O)N[C@@H](CCC(=O)O)C(=O)N[C@@H](CCC(=O)O)C(=O)N[C@@H](CC(C)C)C(=O)N[C@@H](CCC(N)=O)C(=O)N[C@@H](CCCNC(=N)N)C(=O)N[C@@H](Cc1ccc(O)cc1)C(=O)N[C@@H](Cc1ccc(O)cc1)C(=O)N[C@H](C(=O)N[C@@H](CO)C(=O)N[C@@H](C)C(=O)N[C@@H](CCCNC(=N)N)C(=O)N[C@@H](Cc1c[nH]cn1)C(=O)N[C@@H](Cc1ccc(O)cc1)C(=O)N[C@@H](Cc1ccc(O)cc1)C(=O)N[C@@H](CC(N)=O)C(=O)N[C@@H](Cc1c[nH]c2ccccc12)C(=O)N[C@@H](CC(C)C)C(=O)N[C@H](C(=O)N[C@@H](CCCNC(=N)N)C(=O)N[C@@H](CCC(N)=O)C(=O)N[C@@H](CCCNC(=N)N)C(=O)N[C@@H](Cc1ccc(O)cc1)C(N)=O)[C@@H](C)O)C(C)C` [Compound 6, N{alpha-4}-(3-methylbutanoyl)-N{epsilon-7}-[2-(2-{2-[2-(2-{2-[(4S)-4-carboxy-4-(17-carboxyheptadecanamido)butanamido]ethoxy}ethoxy)acetamido]ethoxy}ethoxy)acetamido]-[4A,7K,9E,11E,18Q,22V,24A,28Y,30W,31L]hPYY (4-36)] (Isovaleryl-APEK([AEEA-AEEA-γGlu-C18 diacid])PEEEASPEELQRYYVSARHYYNWLTRQRY-NH2), for which the Ki was found to be 6.52 nM.
For `CC(C)CC(=O)N[C@@H](C)C(=O)N1CCC[C@H]1C(=O)N[C@@H](CCC(=O)O)C(=O)N[C@@H](CCCCNC(=O)COCCOCCNC(=O)COCCOCCNC(=O)CC[C@H](NC(=O)CCCCCCCCCCCCCCCCC(=O)O)C(=O)O)C(=O)N1CCC[C@H]1C(=O)N[C@@H](CCC(=O)O)C(=O)N[C@@H](CCC(=O)O)C(=O)N[C@@H](C)C(=O)N[C@@H](C)C(=O)N[C@@H](CO)C(=O)N1CCC[C@H]1C(=O)N[C@@H](CCC(=O)O)C(=O)N[C@@H](CCC(=O)O)C(=O)N[C@H](C(=O)N[C@@H](CCC(N)=O)C(=O)N[C@@H](CCCNC(=N)N)C(=O)N[C@@H](Cc1ccc(O)cc1)C(=O)N[C@@H](Cc1ccc(O)cc1)C(=O)N[C@H](C(=O)N[C@@H](CO)C(=O)N[C@@H](CC(C)C)C(=O)N[C@@H](CCCNC(=N)N)C(=O)N[C@@H](Cc1c[nH]cn1)C(=O)N[C@@H](Cc1ccc(O)cc1)C(=O)N[C@@H](Cc1ccc(O)cc1)C(=O)N[C@@H](CC(N)=O)C(=O)N[C@@H](Cc1c[nH]c2ccccc12)C(=O)N[C@@H](CC(C)C)C(=O)N[C@H](C(=O)N[C@@H](CCCNC(=N)N)C(=O)N[C@@H](CCC(N)=O)C(=O)N[C@@H](CCCNC(=N)N)C(=O)N[C@@H](Cc1ccc(O)cc1)C(N)=O)[C@@H](C)O)C(C)C)[C@@H](C)O` [Compound 226, N{alpha-4}-(3-methylbutanoyl)-N{epsilon-7}-[2-(2-{2-[2-(2-{2-[(4S)-4-carboxy-4-(17-carboxyheptadecanamido)butanamido]ethoxy}ethoxy)acetamido]ethoxy}ethoxy)acetamido]-[4A,7K,9E,11A,17T,18Q,22V,28Y,30W,31L]hPYY (4-36)], the Ki stood at 1.21 nM.
For `CC(C)CC(=O)N[C@@H](C)C(=O)N1CCC[C@H]1C(=O)N[C@@H](CCC(=O)O)C(=O)N[C@@H](CCCCNC(=O)COCCOCCNC(=O)COCCOCCNC(=O)CC[C@H](NC(=O)CCCCCCCCCCCCCCCCC(=O)O)C(=O)O)C(=O)N1CCC[C@H]1C(=O)N[C@@H](CCC(=O)O)C(=O)N[C@@H](C)C(=O)N[C@@H](CC(=O)O)C(=O)N[C@@H](C)C(=O)N[C@@H](CO)C(=O)N1CCC[C@H]1C(=O)N[C@@H](CCC(=O)O)C(=O)N[C@@H](CCC(=O)O)C(=O)N[C@@H](CC(C)C)C(=O)N[C@@H](CCC(N)=O)C(=O)N[C@@H](CCCNC(=N)N)C(=O)N[C@@H](Cc1ccc(O)cc1)C(=O)N[C@@H](Cc1ccc(O)cc1)C(=O)N[C@H](C(=O)N[C@@H](CCC(=O)O)C(=O)N[C@@H](CC(C)C)C(=O)N[C@@H](CCCNC(=N)N)C(=O)N[C@@H](Cc1c[nH]cn1)C(=O)N[C@@H](Cc1ccc(O)cc1)C(=O)N[C@@H](Cc1ccc(O)cc1)C(=O)N[C@@H](CC(N)=O)C(=O)N[C@@H](Cc1c[nH]c2ccccc12)C(=O)N[C@@H](CC(C)C)C(=O)N[C@H](C(=O)N[C@@H](CCCNC(=N)N)C(=O)N[C@@H](CCC(N)=O)C(=O)N[C@@H](CCCNC(=N)N)C(=O)N[C@@H](Cc1ccc(O)cc1)C(N)=O)[C@@H](C)O)C(C)C` [Compound 135, N{alpha-4}-(3-methylbutanoyl)-N{epsilon-7}-[2-(2-{2-[2-(2-{2-[(4S)-4-carboxy-4-(17-carboxyheptadecanamido)butanamido]ethoxy}ethoxy)acetamido]ethoxy}ethoxy)acetamido]-[4A,7K,9E,10A,18Q,22V,23E,28Y,30W,31L]hPYY (4-36)] the value was 1.31 nM; for `CC(C)CC(=O)N[C@@H](C)C(=O)N1CCC[C@H]1C(=O)N[C@@H](CCC(=O)O)C(=O)N[C@@H](CCCCNC(=O)COCCOCCNC(=O)COCCOCCNC(=O)CC[C@H](NC(=O)CCCCCCCCCCCCCCCCC(=O)O)C(=O)O)C(=O)N1CCC[C@H]1C(=O)N[C@@H](CCC(=O)O)C(=O)N[C@@H](CCC(=O)O)C(=O)N[C@@H](C)C(=O)N[C@@H](C)C(=O)N[C@@H](CO)C(=O)N1CCC[C@H]1C(=O)N[C@@H](CCC(=O)O)C(=O)N[C@@H](CCC(=O)O)C(=O)N[C@@H](CC(C)C)C(=O)N[C@@H](CCC(N)=O)C(=O)N[C@@H](CCCNC(=N)N)C(=O)N[C@@H](Cc1ccc(O)cc1)C(=O)N[C@@H](Cc1ccc(O)cc1)C(=O)N[C@H](C(=O)N[C@@H](CO)C(=O)N[C@H](C(=O)N[C@@H](CCCNC(=N)N)C(=O)N[C@@H](Cc1c[nH]cn1)C(=O)N[C@@H](Cc1ccc(O)cc1)C(=O)N[C@@H](Cc1ccc(O)cc1)C(=O)N[C@@H](CC(N)=O)C(=O)N[C@@H](Cc1c[nH]c2ccccc12)C(=O)N[C@@H](CC(C)C)C(=O)N[C@H](C(=O)N[C@@H](CCCNC(=N)N)C(=O)N[C@@H](CCC(N)=O)C(=O)N[C@@H](CCCNC(=N)N)C(=O)N[C@@H](Cc1ccc(O)cc1)C(N)=O)[C@@H](C)O)[C@@H](C)O)C(C)C` [Compound 42, N{alpha-4}-(3-methylbutanoyl)-N{epsilon-7}-[2-(2-{2-[2-(2-{2-[(4S)-4-carboxy-4-(17-carboxyheptadecanamido)butanamido]ethoxy}ethoxy)acetamido]ethoxy}ethoxy)acetamido]-[4A,7K,9E,11A,18Q,22V,24T,28Y,30W,31L]hPYY (4-36)] (Isovaleryl-APEK([AEEA-AEEA-γGlu-C18 diacid])PEEAASPEELQRYYVSTRHYYNWLTRQRY-NH2), 5.92 nM.
In the case of `CC(C)CC(=O)N[C@@H](C)C(=O)N1CCC[C@H]1C(=O)N[C@@H](CCC(=O)O)C(=O)N[C@@H](CCCCNC(=O)COCCOCCNC(=O)COCCOCCNC(=O)CC[C@H](NC(=O)CCCCCCCCCCCCCCCCC(=O)O)C(=O)O)C(=O)N[C@@H](C)C(=O)N[C@@H](CCC(=O)O)C(=O)N[C@@H](CCC(=O)O)C(=O)N[C@@H](CCC(=O)O)C(=O)N[C@@H](C)C(=O)N[C@@H](CO)C(=O)N1CCC[C@H]1C(=O)N[C@@H](CCC(=O)O)C(=O)N[C@@H](CCC(=O)O)C(=O)N[C@@H](CC(C)C)C(=O)N[C@@H](CCC(N)=O)C(=O)N[C@@H](CCCNC(=N)N)C(=O)N[C@@H](Cc1ccc(O)cc1)C(=O)N[C@@H](Cc1ccc(O)cc1)C(=O)N[C@H](C(=O)N[C@@H](CO)C(=O)N[C@@H](CC(C)C)C(=O)N[C@@H](CCCNC(=N)N)C(=O)N[C@@H](Cc1c[nH]cn1)C(=O)N[C@@H](Cc1ccc(O)cc1)C(=O)N[C@@H](Cc1ccc(O)cc1)C(=O)N[C@@H](CC(N)=O)C(=O)N[C@@H](Cc1c[nH]c2ccccc12)C(=O)N[C@@H](CC(C)C)C(=O)N[C@H](C(=O)N[C@@H](CCCNC(=N)N)C(=O)N[C@@H](CCC(N)=O)C(=O)N[C@@H](CCCNC(=N)N)C(=O)N[C@@H](Cc1ccc(O)cc1)C(N)=O)[C@@H](C)O)C(C)C` [Compound 51, N{alpha-4}-(3-methylbutanoyl)-N{epsilon-7}-[2-(2-{2-[2-(2-{2-[(4S)-4-carboxy-4-(17-carboxyheptadecanamido)butanamido]ethoxy}ethoxy)acetamido]ethoxy}ethoxy)acetamido]-[4A,7K,8A,9E,11E,18Q,22V,28Y,30W,31L]hPYY (4-36)] (Isovaleryl-APEK([AEEA-AEEA-γGlu-C18 diacid])AEEEASPEELQRYYVSLRHYYNWLTRQRY-NH2), the Ki stood at 39.4 nM.

The record behind these values is patent publication US12559529B2, “NPY2 receptor agonists” (Boehringer Ingelheim International GmbH, priority 2019, dated 2026).
